Patent US20220281848A1, “PYRAZOLE-SUBSTITUTED PYRROLIDINONES AS HERBICIDES” (FMC Corporation, priority 2019, published 2022)

Test system: plants
Experiment: Test D pre-emergence, other plants of Tables D1 and D3
Assay type: in vivo
Details: preemergent, 20 DAA
Outline: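 Damage was rated visually from 0 (none) to 100 (total), at 20 DAA for pre-emergence and 15 d for post-emergence. Plants grew from safener-treated seed in a glasshouse at 24/18° C. or 20/16° C. day/night, 65% humidity, watered twice daily.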

CCn1nc([C@H]2CN(C)C(=O)[C@@H]2C(=O)Nc2cccc(F)c2F)c2c(F)cccc21 [Compound 7]
damage to plant (100=total damage to plant; 0=no damage to plant), ABUTH (rate 15): 0
damage to plant (100=total damage to plant; 0=no damage to plant), ABUTH (rate 30): 0
damage to plant (100=total damage to plant; 0=no damage to plant), ABUTH (rate 60): 0
damage to plant (100=total damage to plant; 0=no damage to plant), ABUTH (rate 130): 0
damage to plant (100=total damage to plant; 0=no damage to plant), ABUTH (rate 250): 0
damage to plant (100=total damage to plant; 0=no damage to plant), ABUTH (rate 500): 10
damage to plant (100=total damage to plant; 0=no damage to plant), AMARE (rate 15): 0
damage to plant (100=total damage to plant; 0=no damage to plant), AMARE (rate 30): 0
damage to plant (100=total damage to plant; 0=no damage to plant), AMARE (rate 60): 0
damage to plant (100=total damage to plant; 0=no damage to plant), AMARE (rate 130): 0
damage to plant (100=total damage to plant; 0=no damage to plant), AMARE (rate 250): 0
damage to plant (100=total damage to plant; 0=no damage to plant), AMARE (rate 500): 0
damage to plant (100=total damage to plant; 0=no damage to plant), BIDPI (rate 15): 0
damage to plant (100=total damage to plant; 0=no damage to plant), BIDPI (rate 30): 0
damage to plant (100=total damage to plant; 0=no damage to plant), BIDPI (rate 60): 0
damage to plant (100=total damage to plant; 0=no damage to plant), BIDPI (rate 130): 0
damage to plant (100=total damage to plant; 0=no damage to plant), BIDPI (rate 250): 0
damage to plant (100=total damage to plant; 0=no damage to plant), BIDPI (rate 500): 0
damage to plant (100=total damage to plant; 0=no damage to plant), BRAPL (rate 15): 0
damage to plant (100=total damage to plant; 0=no damage to plant), BRAPL (rate 30): 60
damage to plant (100=total damage to plant; 0=no damage to plant), BRAPL (rate 60): 80
damage to plant (100=total damage to plant; 0=no damage to plant), BRAPL (rate 130): 80
damage to plant (100=total damage to plant; 0=no damage to plant), BRAPL (rate 250): 90
damage to plant (100=total damage to plant; 0=no damage to plant), BRAPL (rate 500): 100
damage to plant (100=total damage to plant; 0=no damage to plant), CYPES (rate 15): 0
damage to plant (100=total damage to plant; 0=no damage to plant), CYPES (rate 30): 0
damage to plant (100=total damage to plant; 0=no damage to plant), CYPES (rate 60): 0
damage to plant (100=total damage to plant; 0=no damage to plant), CYPES (rate 130): 0
damage to plant (100=total damage to plant; 0=no damage to plant), CYPES (rate 250): 0
damage to plant (100=total damage to plant; 0=no damage to plant), CYPES (rate 500): 20
damage to plant (100=total damage to plant; 0=no damage to plant), DIGSA (rate 15): 0
damage to plant (100=total damage to plant; 0=no damage to plant), DIGSA (rate 30): 80
damage to plant (100=total damage to plant; 0=no damage to plant), DIGSA (rate 60): 90
damage to plant (100=total damage to plant; 0=no damage to plant), DIGSA (rate 130): 100
damage to plant (100=total damage to plant; 0=no damage to plant), DIGSA (rate 250): 100
damage to plant (100=total damage to plant; 0=no damage to plant), DIGSA (rate 500): 100
damage to plant (100=total damage to plant; 0=no damage to plant), ECHCG (rate 15): 0
damage to plant (100=total damage to plant; 0=no damage to plant), ECHCG (rate 30): 90
damage to plant (100=total damage to plant; 0=no damage to plant), ECHCG (rate 60): 90
damage to plant (100=total damage to plant; 0=no damage to plant), ECHCG (rate 130): 100
damage to plant (100=total damage to plant; 0=no damage to plant), ECHCG (rate 250): 100
damage to plant (100=total damage to plant; 0=no damage to plant), ECHCG (rate 500): 100
damage to plant (100=total damage to plant; 0=no damage to plant), ELEIN (rate 15): 0
damage to plant (100=total damage to plant; 0=no damage to plant), ELEIN (rate 30): 0
damage to plant (100=total damage to plant; 0=no damage to plant), ELEIN (rate 60): 10
damage to plant (100=total damage to plant; 0=no damage to plant), ELEIN (rate 130): 60
damage to plant (100=total damage to plant; 0=no damage to plant), ELEIN (rate 250): 50
damage to plant (100=total damage to plant; 0=no damage to plant), ELEIN (rate 500): 70
damage to plant (100=total damage to plant; 0=no damage to plant), EPHHL (rate 15): 0
damage to plant (100=total damage to plant; 0=no damage to plant), EPHHL (rate 30): 0
damage to plant (100=total damage to plant; 0=no damage to plant), EPHHL (rate 60): 0
damage to plant (100=total damage to plant; 0=no damage to plant), EPHHL (rate 250): 10
damage to plant (100=total damage to plant; 0=no damage to plant), EPHHL (rate 500): 40
damage to plant (100=total damage to plant; 0=no damage to plant), GLXMA (rate 15): 0
damage to plant (100=total damage to plant; 0=no damage to plant), GLXMA (rate 30): 0
damage to plant (100=total damage to plant; 0=no damage to plant), GLXMA (rate 60): 0
damage to plant (100=total damage to plant; 0=no damage to plant), GLXMA (rate 130): 0
damage to plant (100=total damage to plant; 0=no damage to plant), GLXMA (rate 250): 0
damage to plant (100=total damage to plant; 0=no damage to plant), GLXMA (rate 500): 0
damage to plant (100=total damage to plant; 0=no damage to plant), IPOHE (rate 15): 0
damage to plant (100=total damage to plant; 0=no damage to plant), IPOHE (rate 30): 0
damage to plant (100=total damage to plant; 0=no damage to plant), IPOHE (rate 60): 0
damage to plant (100=total damage to plant; 0=no damage to plant), IPOHE (rate 130): 0
damage to plant (100=total damage to plant; 0=no damage to plant), IPOHE (rate 250): 0
damage to plant (100=total damage to plant; 0=no damage to plant), IPOHE (rate 500): 0
damage to plant (100=total damage to plant; 0=no damage to plant), ORYSA (rate 15): 0
damage to plant (100=total damage to plant; 0=no damage to plant), ORYSA (rate 30): 0
damage to plant (100=total damage to plant; 0=no damage to plant), ORYSA (rate 60): 0
damage to plant (100=total damage to plant; 0=no damage to plant), ORYSA (rate 130): 0
damage to plant (100=total damage to plant; 0=no damage to plant), ORYSA (rate 250): 0
damage to plant (100=total damage to plant; 0=no damage to plant), ORYSA (rate 500): 0
damage to plant (100=total damage to plant; 0=no damage to plant), PANMI (rate 15): 0
damage to plant (100=total damage to plant; 0=no damage to plant), PANMI (rate 30): 0
damage to plant (100=total damage to plant; 0=no damage to plant), PANMI (rate 60): 0
damage to plant (100=total damage to plant; 0=no damage to plant), PANMI (rate 130): 0
damage to plant (100=total damage to plant; 0=no damage to plant), PANMI (rate 250): 0
damage to plant (100=total damage to plant; 0=no damage to plant), PANMI (rate 500): 20
damage to plant (100=total damage to plant; 0=no damage to plant), SETFA (rate 15): 0
damage to plant (100=total damage to plant; 0=no damage to plant), SETFA (rate 30): 80
damage to plant (100=total damage to plant; 0=no damage to plant), SETFA (rate 60): 80
damage to plant (100=total damage to plant; 0=no damage to plant), SETFA (rate 130): 90
damage to plant (100=total damage to plant; 0=no damage to plant), SETFA (rate 250): 90
damage to plant (100=total damage to plant; 0=no damage to plant), SETFA (rate 500): 100
damage to plant (100=total damage to plant; 0=no damage to plant), SIDSP (rate 15): 0
damage to plant (100=total damage to plant; 0=no damage to plant), SIDSP (rate 30): 0
damage to plant (100=total damage to plant; 0=no damage to plant), SIDSP (rate 60): 0
damage to plant (100=total damage to plant; 0=no damage to plant), SIDSP (rate 130): 0
damage to plant (100=total damage to plant; 0=no damage to plant), SIDSP (rate 250): 0
damage to plant (100=total damage to plant; 0=no damage to plant), SIDSP (rate 500): 10
damage to plant (100=total damage to plant; 0=no damage to plant), SORVU (rate 15): 0
damage to plant (100=total damage to plant; 0=no damage to plant), SORVU (rate 30): 0
damage to plant (100=total damage to plant; 0=no damage to plant), SORVU (rate 60): 0
